In patent US12065434B2, “Metabolites of GLP1R agonists” (Pfizer Inc., priority 2020, dated 2024):

How the values were obtained:
[1] = Metabolite profiling of pooled human plasma after repeat oral dosing of Compound 1 (HPLC/UV/MS); details: for Plasma Extracts: Compound 1 120 mg oral BID, Day 28, HPLC/UV/MS; for observed as major or minor metabolite in human plasma: Compound 1 120 mg BID, Day 28
[2] = tested on: mouse hepatocytes; experiment: In vitro metabolism of Compound 2 in mouse cryopreserved hepatocytes; type: in vitro ADME; design: key to Relative abundance of metabolite of Compound 2, Mouse: ND Not detected.; trace: Trace: observed by HPLC/MS measurements only.; + Minor as assessed by HPLC/UV measurements; ++ moderate as assessed by HPLC/UV measurements; +++ major as assessed by HPLC/UV measurements.; * m/z 593 and m/z 505 co-eluted in rabbit hepatocytes.; ** m/z 591 c and m/z 593 were merged in human hepatocytes and Hepatopack.; *** m/z 607 and m/z 751 b were merged in rabbit hepatocytes; details: for metabolite of Compound 2 observed in mouse hepatocyte incubations: 10 μM Compound 2, 7.5×10^5 cells/mL, 1 and 4 hrs composite
Procedure: (§1) Male CD-1 mouse hepatocytes (lot YHL), male Wistar-Han rat hepatocytes (Celsius; product number: M000065; lot: SLA), female New Zealand rabbit hepatocytes (lot 1510147), male cryopreserved cynomolgus monkey hepatocytes (Celsius; product number: M00305; lot: DNB) and mixed-gender cryopreserved human hepatocytes (Bioreclamation; product number: S01988; lot: DCM) were obtained for the hepatocyte in-vitro assessments.
(§2) At time 0 hrs 550 μL aliquots were removed from incubations and quenched with 5 volumes of ACN containing 0.1% formic acid. At 1 and 4 hrs, 275 μL aliquots were removed and quenched as above; these were combined in the same tube to prepare a composite sample. For all hepatocyte experiments, samples were processed by centrifugation at 1900×g for 5 minutes, and then the supernatant was transferred to clean glass tubes and evaporated to dryness under a stream of N2 using a Turbovap at 37° C. Sample residues were reconstituted in mobile phase prior to analysis by HPLC/UV/MS^n.
(§3) Samples were analyzed by HPLC/UV/MS^n using a Thermo Orbitrap Elite mass spectrometer in conjunction with a Thermo Open Accela UHPLC system. A 3.0×150 mm, 2.5 μm Acquity CSH C18 HPLC column (Waters) was heated to 45° C. for separation of analytes. The mobile phase was a gradient of A): water containing 0.1% formic acid, and B): acetonitrile. The flow rate was 450 μL/min, and the following gradient program was utilized: […]
(§4) UV absorbance was monitored with a photo-diode array detector from 220-450 nm. The mass spectrometer was operated in positive-ion mode with a HESI ion source at a potential of 3.0 kV, and capillary and source heater temperatures of 380 and 300° C., respectively. Sheath, auxiliary, and sweep gas flows were set to 45, 10, and 2 units, respectively. Full scan mass spectra were acquired over the range 120-1200 m/z at a resolving power of 30,000 (specified at m/z 400). Data-dependent MS^n spectra were acquired in an automated fashion at 15,000 resolving power using CID and HCD fragmentation with normalized collision energy settings of 28 and 65 V, respectively.
(§5) Metabolites were characterized by comparisons of mass spectral fragmentation patterns with that of a Compound 2 standard. All HPLC/UV/MS^n data were processed using Xcalibur v. 2.2, and integrated UV peak areas were subjected to weighted UV binning procedures utilizing an Excel template.

[3] = tested on: rat hepatocytes; experiment: In vitro metabolism of Compound 2 in rat cryopreserved hepatocytes; type: in vitro ADME; design: key to Relative abundance of metabolite of Compound 2, Rat: ND Not detected.; trace: Trace: observed by HPLC/MS measurements only.; + Minor as assessed by HPLC/UV measurements; ++ moderate as assessed by HPLC/UV measurements; +++ major as assessed by HPLC/UV measurements.; * m/z 593 and m/z 505 co-eluted in rabbit hepatocytes.; ** m/z 591 c and m/z 593 were merged in human hepatocytes and Hepatopack.; *** m/z 607 and m/z 751 b were merged in rabbit hepatocytes; details: for metabolite of Compound 2 observed in rat hepatocyte incubations: 10 μM Compound 2, 7.5×10^5 cells/mL, 1 and 4 hrs composite; for Relative abundance of metabolite of Compound 2, Rat: rat cryopreserved hepatocytes, HPLC/UV/MS
Procedure: as §1, §2, §3, §4, §5

[4] = tested on: rabbit hepatocytes; experiment: In vitro metabolism of Compound 2 in rabbit cryopreserved hepatocytes; type: in vitro ADME; design: key to Relative abundance of metabolite of Compound 2, Rabbit: ND Not detected.; trace: Trace: observed by HPLC/MS measurements only.; + Minor as assessed by HPLC/UV measurements; ++ moderate as assessed by HPLC/UV measurements; +++ major as assessed by HPLC/UV measurements.; * m/z 593 and m/z 505 co-eluted in rabbit hepatocytes.; ** m/z 591 c and m/z 593 were merged in human hepatocytes and Hepatopack.; *** m/z 607 and m/z 751 b were merged in rabbit hepatocytes; details: for metabolite of Compound 2 observed in rabbit hepatocyte incubations: 10 μM Compound 2, 7.5×10^5 cells/mL, 1 and 4 hrs composite
Procedure: as §1, §2, §3, §4, §5

[5] = tested on: monkey hepatocytes; experiment: In vitro metabolism of Compound 2 in monkey cryopreserved hepatocytes; type: in vitro ADME, cynomolgus monkey; design: key to Relative abundance of metabolite of Compound 2, Monkey: ND Not detected.; trace: Trace: observed by HPLC/MS measurements only.; + Minor as assessed by HPLC/UV measurements; ++ moderate as assessed by HPLC/UV measurements; +++ major as assessed by HPLC/UV measurements.; * m/z 593 and m/z 505 co-eluted in rabbit hepatocytes.; ** m/z 591 c and m/z 593 were merged in human hepatocytes and Hepatopack.; *** m/z 607 and m/z 751 b were merged in rabbit hepatocytes; details: for metabolite of Compound 2 observed in monkey hepatocyte incubations: 10 μM Compound 2, 7.5×10^5 cells/mL, 1 and 4 hrs composite
Procedure: as §1, §2, §3, §4, §5

[6] = tested on: human hepatocytes; experiment: In vitro metabolism of Compound 2 in human cryopreserved hepatocytes; type: in vitro ADME; design: key to Relative abundance of metabolite of Compound 2, Human: ND Not detected.; trace: Trace: observed by HPLC/MS measurements only.; + Minor as assessed by HPLC/UV measurements; ++ moderate as assessed by HPLC/UV measurements; +++ major as assessed by HPLC/UV measurements.; * m/z 593 and m/z 505 co-eluted in rabbit hepatocytes.; ** m/z 591 c and m/z 593 were merged in human hepatocytes and Hepatopack.; *** m/z 607 and m/z 751 b were merged in rabbit hepatocytes; details: for metabolite of Compound 2 observed in human hepatocyte incubations: 10 μM Compound 2, 7.5×10^5 cells/mL, 1 and 4 hrs composite
Procedure: as §1, §2, §3, §4, §5

| Plasma Extracts [1] | metabolite of Compound 2 observed in mouse hepatocyte incubations [2] | metabolite of Compound 2 observed in rat hepatocyte incubations [3] | metabolite of Compound 2 observed in rabbit hepatocyte incubations [4] | metabolite of Compound 2 observed in monkey hepatocyte incubations [5] | metabolite of Compound 2 observed in human hepatocyte incubations [6] | observed as major or minor metabolite in human plasma [1] | SMILES | further results |
| --- | --- | --- | --- | --- | --- | --- | --- | --- |
|  | observed in all hepatocyte incubations | observed in all hepatocyte incubations | observed in all hepatocyte incubations | observed in all hepatocyte incubations | observed in all hepatocyte incubations |  | C[C@]1(c2ccc(Cl)cn2)Oc2cccc(C3CC[N+]([O-])(Cc4nc5ccc(C(=O)O)cc5n4C[C@@H]4CCO4)CC3)c2O1 (stereo partly drawn) [Metabolite 591d] |  |
| +++ |  |  |  |  |  |  | N#Cc1ccc(COc2cccc(C3CCN(Cc4nc5ccc(C(=O)O)cc5n4C[C@@H]4CCO4)CC3)n2)c(F)c1 [Compound 1, 2-[(4-{6-[(4-Cyano-2-fluorobenzyl)oxy]pyridin-2-yl}piperidin-1-yl)methyl]-1-[(2S)-oxetan-2-ylmethyl]-1H-benzimidazole-6-carboxylic acid] |  |
| + |  |  |  |  |  | minor metabolite | N#Cc1ccc(COc2cccc(C3CCN(Cc4nc5ccc(C(=O)O)cc5n4CC(O)CCO)CC3)n2)c(F)c1 (stereo not drawn) [Compound 574b, 2-((4-(6-((4-cyano-2-fluorobenzyl)oxy)pyridin-2-yl)piperidin-1-yl)methyl)-1-(2,4-dihydroxybutyl)-1H-benzo[d]imidazole-6-carboxylic acid] |  |
| + |  |  |  |  |  | minor metabolite | N#Cc1ccc(COc2cccc(C3CCNCC3)n2)c(F)c1 [Compound M3, 3-fluoro-4-(((6-(piperidin-4-yl)pyridin-2-yl)oxy)methyl)benzonitrile] |  |
| + |  |  |  |  |  | minor metabolite | N#Cc1ccc(COc2cccc(C(CCO)CCNCc3nc4ccc(C(=O)O)cc4n3C[C@@H]3CCO3)n2)c(F)c1 (stereo partly drawn) [Compound 574a, 2-(((3-(6-((4-cyano-2-fluorobenzyl)oxy)pyridin-2-yl)-5-hydroxypentyl)amino)methyl)-1-(((S)-oxetan-2-yl)methyl)-1H-benzo[d]imidazole-6-carboxylic acid] |  |
|  |  | trace metabolite |  | trace metabolite | trace metabolite |  | O=C(O)c1ccc2nc(CN3CCC(c4cccc(O)c4O)CC3)n(C[C@@H]3CCO3)c2c1 [Metabolite 438, (S)-2-((4-(2,3-dihydroxyphenyl)piperidin-1-yl)methyl)-1-(oxetan-2-ylmethyl)-1H-benzo[d]imidazole-6-carboxylic acid] | Relative abundance of metabolite of Compound 2, Rat [3]: trace; Relative abundance of metabolite of Compound 2, Monkey ([5]; monkey cryopreserved hepatocytes, HPLC/UV/MS): trace; Relative abundance of metabolite of Compound 2, Human ([6]; human cryopreserved hepatocytes, HPLC/UV/MS): trace |
|  | observed | observed | observed |  |  |  | C[C@]1(c2ccc(Cl)cn2)Oc2cccc(C3CCN(Cc4nc5ccc(C(=O)O)cc5[nH]4)CC3)c2O1 [Metabolite 505, (S)-2-((4-(2-(5-chloropyridin-2-yl)-2-methylbenzo[d][1,3]dioxol-4-yl)piperidin-1-yl)methyl)-1H-benzo[d]imidazole-6-carboxylic acid] | Relative abundance of metabolite of Compound 2, Mouse ([2]; mouse cryopreserved hepatocytes, HPLC/UV/MS): trace; Relative abundance of metabolite of Compound 2, Rat [3]: trace; Relative abundance of metabolite of Compound 2, Rabbit ([4]; rabbit cryopreserved hepatocytes, HPLC/UV/MS): * |

| SMILES | Plasma Extracts [1] | metabolite of Compound 2 observed in mouse hepatocyte incubations [2] | metabolite of Compound 2 observed in rat hepatocyte incubations [3] | metabolite of Compound 2 observed in rabbit hepatocyte incubations [4] | metabolite of Compound 2 observed in monkey hepatocyte incubations [5] | metabolite of Compound 2 observed in human hepatocyte incubations [6] | observed as major or minor metabolite in human plasma [1] | further results |
| --- | --- | --- | --- | --- | --- | --- | --- | --- |
| N#Cc1ccc(COc2cccc(C3(O)CCN(Cc4nc5ccc(C(=O)O)cc5n4C[C@@H]4CCO4)CC3)n2)c(F)c1 [Compound M4, (S)-2-((4-(6-((4-cyano-2-fluorobenzyl)oxy)pyridin-2-yl)-4-hydroxypiperidin-1-yl)methyl)-1-(oxetan-2-ylmethyl)-1H-benzo[d]imidazole-6-carboxylic acid] | + |  |  |  |  |  |  |  |
| C[C@]1(c2ccc(Cl)cn2)Oc2cccc(C3=CCN(Cc4nc5ccc(C(=O)O)cc5n4C[C@@H]4CCO4)CC3)c2O1 [Metabolite 573a] |  | low-level metabolite | low-level metabolite | low-level metabolite | low-level metabolite | low-level metabolite |  |  |
